Assay results: the supplement of paper PMC10307832

Experiments:
Assay in all cases: relative viability (nuclei count vs DMSO), 5 days (fraction); higher = more cells survive
[1] = compound: CC[C@H](Nc1ncnc2[nH]cnc12)c1nc2cccc(F)c2c(=O)n1-c1ccccc1 [Idelalisib] + COc1cccc2cc(-c3nc([C@H]4CC[C@H](C(=O)O)CC4)n4ncnc(N)c34)[nH]c12 [OSI-027] (partner 0.5 µM)
Summary of the method: (§1)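 One day after seeding in 1536-well plates, lung cancer cell lines were dosed by pin tool. Dosing was either single-drug or a fixed anchor-drug dose plus five library-drug doses (not always all listed) in √10 steps. After 5 days, nuclei were stained in one fix-and-stain step and counted on 4× images, and relative viability is the nuclei count of treated wells over that of vehicle wells, given as the median of duplicate plates.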

[2] = compound: Nc1nc2[nH]cc(CCc3ccc(C(=O)N[C@@H](CCC(=O)O)C(=O)O)cc3)c2c(=O)[nH]1 [Pemetrexed] + CC(=O)c1c(C)c2cnc(Nc3ccc(N4CCNCC4)cn3)nc2n(C2CCCC2)c1=O [Palbociclib] (partner 0.5 µM)
Summary of the method: as §1

[3] = compound: CC[C@H](Nc1ncnc2[nH]cnc12)c1nc2cccc(F)c2c(=O)n1-c1ccccc1 [Idelalisib] + C[C@]1(O)C[C@@H](c2nc(-c3ccc4ccc(-c5ccccc5)nc4c3)c3c(N)nccn32)C1 [Linsitinib] (partner 1 µM)
Summary of the method: as §1

[4] = compound: Nc1nc2[nH]cc(CCc3ccc(C(=O)N[C@@H](CCC(=O)O)C(=O)O)cc3)c2c(=O)[nH]1 [Pemetrexed] + C[C@@H](Oc1cc(-c2cnn(C3CCNCC3)c2)cnc1N)c1c(Cl)ccc(F)c1Cl [Crizotinib] (partner 1 µM)
Summary of the method: as §1

| Cell Line | relative viability ([1]; first compound 0.04 µM) | relative viability ([1]; first compound 0.1265 µM) | relative viability ([1]; first compound 0.4 µM) | relative viability ([1]; first compound 1.265 µM) | relative viability ([1]; first compound 4 µM) | relative viability ([2]; first compound 0.002 µM) | relative viability ([2]; first compound 0.006325 µM) | relative viability ([2]; first compound 0.02 µM) | relative viability ([2]; first compound 0.06325 µM) | relative viability ([2]; first compound 0.2 µM) | relative viability ([3]; first compound 0.04 µM) | relative viability ([3]; first compound 0.1265 µM) | relative viability ([3]; first compound 0.4 µM) | relative viability ([3]; first compound 1.265 µM) | relative viability ([3]; first compound 4 µM) | relative viability ([4]; first compound 0.002 µM) | relative viability ([4]; first compound 0.006325 µM) | relative viability ([4]; first compound 0.02 µM) | relative viability ([4]; first compound 0.06325 µM) | relative viability ([4]; first compound 0.2 µM) |
| --- | --- | --- | --- | --- | --- | --- | --- | --- | --- | --- | --- | --- | --- | --- | --- | --- | --- | --- | --- | --- |
| NCI-H1355 | 0.401 | 0.476 | 0.273 | 0.401 | 0.366 | 0.372 | 0.391 | 0.391 | 0.413 | 0.402 | 0.893 | 0.789 | 0.599 | 0.701 | 0.596 | 0.933 | 0.964 | 1.13 | 1.06 | 1.07 |
| NCI-H1437 | 0.861 | 0.864 | 0.795 | 1.07 | 0.967 | 0.214 | 0.307 | 0.303 | 0.307 | 0.329 | 1.05 | 1.09 | 0.974 | 1.02 | 1.05 | 0.948 | 0.854 | 0.965 | 0.586 | 0.281 |
| NCI-H1651 | 0.701 | 0.731 | 0.508 | 0.778 | 0.596 | 0.548 | 0.477 | 0.52 | 0.495 | 0.529 | 0.982 | 0.903 | 0.789 | 0.923 | 0.714 | 0.879 | 0.792 | 0.92 | 0.864 | 0.851 |
| NCI-H1666 | 0.889 | 0.895 | 0.782 | 0.83 | 0.759 | 0.666 | 0.647 | 0.704 | 0.674 | 0.623 | 0.881 | 0.873 | 0.73 | 0.629 | 0.552 | 1.08 | 0.9 | 0.986 | 0.865 | 0.635 |
| NCI-H1734 | 0.659 | 0.593 | 0.404 | 0.579 | 0.537 | 0.192 | 0.358 | 0.366 | 0.333 | 0.346 | 0.944 | 0.814 | 0.765 | 0.791 | 0.597 | 0.721 | 0.647 | 0.745 | 0.723 | 0.686 |
| NCI-H1755 | 0.69 | 0.687 | 0.584 | 0.675 | 0.573 | 0.488 | 0.423 | 0.478 | 0.448 | 0.412 | 1.01 | 0.959 | 0.947 | 0.907 | 0.786 | 0.787 | 0.814 | 0.897 | 0.973 | 0.78 |
| NCI-H1792 | 0.466 | 0.778 | 0.598 | 0.836 | 0.51 | 0.7 | 0.608 | 0.685 | 0.671 | 0.642 | 0.242 | 0.498 | 0.508 | 0.443 | 0.461 | 0.993 | 0.972 | 0.987 | 0.974 | 0.937 |
| NCI-H1915 | 0.699 | 0.633 | 0.627 | 0.739 | 0.53 | 0.487 | 0.512 | 0.568 | 0.521 | 0.522 | 1.19 | 1.15 | 1.04 | 1.17 | 1.07 | 0.876 | 0.834 | 0.936 | 0.877 | 0.914 |
| NCI-H1944 | 0.473 | 0.411 | 0.271 | 0.396 | 0.365 | 0.286 | 0.304 | 0.339 | 0.312 | 0.343 | 1.19 | 1.06 | 1.06 | 1.14 | 0.808 | 0.911 | 1.02 | 1.19 | 1.11 | 1 |
| NCI-H1975 | 0.819 | 0.764 | 0.61 | 0.917 | 0.429 | 0.306 | 0.562 | 0.606 | 0.375 | 0.237 | 0.98 | 1.03 | 0.882 | 0.937 | 0.772 |  | 0.879 | 0.987 | 0.806 | 0.438 |
| NCI-H1993 | 0.575 | 0.53 | 0.512 | 0.584 | 0.552 | 1.1 | 0.605 | 0.635 | 0.727 | 0.554 | 0.824 | 0.673 | 0.662 | 0.756 | 0.66 | 0.877 | 0.878 | 0.894 | 0.879 | 0.982 |
| NCI-H2009 | 0.642 | 0.646 | 0.515 | 0.509 | 0.557 | 0.263 | 0.205 | 0.194 | 0.22 | 0.203 | 1.22 | 1.28 | 1.11 | 1.16 | 0.887 | 1.01 | 1.04 | 1.01 | 1.06 | 1.04 |
| NCI-H2023 | 0.473 | 0.339 | 0.285 | 0.278 | 0.313 | 0.347 | 0.387 | 0.384 | 0.323 | 0.125 | 0.662 | 0.556 | 0.515 | 0.547 | 0.273 | 0.632 | 0.616 | 0.685 | 0.607 | 0.377 |
| NCI-H2085 | 0.738 | 1.01 | 0.521 | 0.725 | 0.325 | 0.457 | 0.458 | 0.495 | 0.471 | 0.464 | 0.912 | 1.03 | 0.8 | 0.579 | 0.437 | 0.96 | 0.869 | 0.752 | 0.896 | 0.924 |
| NCI-H2087 | 0.593 | 0.513 | 0.324 | 0.633 | 0.319 | 0.161 | 0.221 | 0.245 | 0.217 | 0.214 | 0.937 | 1.04 | 1.09 | 1.06 | 0.728 | 0.945 | 0.818 | 0.912 | 0.85 | 0.786 |
| NCI-H2126 | 0.67 | 0.678 | 0.462 | 0.732 | 0.704 | 0.363 | 0.327 | 0.409 | 0.339 | 0.359 | 0.71 | 0.715 | 0.685 | 0.698 | 0.625 | 0.967 | 0.96 | 1.02 | 1.03 | 0.965 |
| NCI-H2228 | 0.687 | 0.725 | 0.453 | 0.637 | 0.597 | 0.579 | 0.755 | 0.746 | 0.341 | 0.268 | 0.66 | 0.68 | 0.586 | 0.768 | 0.511 | 0.424 | 0.514 | 0.409 | 0.358 | 0.31 |
| NCI-H2347 | 0.379 | 0.332 | 0.367 | 0.348 | 0.257 | 0.448 | 0.413 | 0.505 | 0.4 | 0.388 | 0.931 | 0.884 | 0.857 | 1.14 | 0.514 | 0.689 | 0.616 | 0.694 | 0.577 | 0.477 |
| NCI-H2405 | 0.675 | 0.648 | 0.433 | 0.612 | 0.516 | 0.524 | 0.531 | 0.535 | 0.514 | 0.48 | 1.08 | 0.851 | 0.733 | 0.736 | 0.69 | 0.868 | 0.785 | 0.869 | 0.824 | 0.825 |
| NCI-H3122 | 0.879 | 0.952 | 0.729 | 0.941 | 0.764 | 0.164 | 0.192 | 0.206 | 0.222 | 0.165 | 0.953 | 0.952 | 1.03 | 0.935 | 0.894 | 0.275 | 0.261 | 0.261 | 0.244 | 0.233 |
| PC-3 [JPC-3] | 0.712 | 0.747 | 0.639 | 0.694 | 0.571 | 0.483 | 0.54 | 0.536 | 0.578 | 0.503 | 0.972 | 0.976 | 0.986 | 0.95 | 0.893 | 0.935 | 0.985 | 0.926 | 1.11 | 0.935 |
| PC-14 | 0.946 | 1.05 | 0.721 | 0.338 | 0.754 | 0.578 | 0.501 | 0.471 | 0.185 | 0.118 | 0.971 | 0.978 | 0.929 | 0.97 | 0.901 | 0.86 | 0.888 | 0.838 | 0.709 | 0.207 |
| RERF-LC-KJ | 0.632 | 0.563 | 0.436 | 0.502 | 0.516 | 0.877 | 1.08 | 1.14 | 0.976 | 0.773 | 0.973 | 0.863 | 0.869 | 0.789 | 0.908 | 0.89 | 0.852 | 0.878 | 0.832 | 0.805 |
| SK-LU-1 | 0.383 | 0.39 | 0.27 | 0.369 | 0.272 | 0.54 | 0.379 | 0.391 | 0.413 | 0.375 | 1.17 | 1.15 | 0.916 | 1.02 | 0.973 | 0.771 | 0.883 | 0.858 | 0.953 | 0.731 |
| SK-MES-1 | 0.666 | 0.611 | 0.427 | 0.218 | 0.467 | 0.316 | 0.305 | 0.353 | 0.33 | 0.327 | 1.02 | 0.984 | 0.934 | 0.855 | 0.703 | 1.06 | 0.938 | 0.99 | 1.01 | 0.832 |
| SW 1573 | 0.625 | 0.656 | 0.518 | 0.492 | 0.531 | 0.352 | 0.423 | 0.435 | 0.413 | 0.235 | 0.781 | 0.792 | 0.728 | 0.625 | 0.558 | 0.658 | 0.79 | 0.919 | 0.888 | 0.791 |
